Assay results: paper PMC3628851, “Combined Approaches for Drug Design Points the Way to Novel Proline Racemase Inhibitor Candidates to Fight Chagas’ Disease” (PLoS ONE, 2013)
pIC50, pKi: −log10 of the molar value. Like-named read-outs stand apart in the source and are kept apart here.

Experiments:
TcPRAC [1] = target: T1, TcPRAC (Trypanosoma cruzi, UniProt Q4DA80); assay: TcPRAC inhibition by PYC derivatives (polarimetry and DAAO methodologies); type: biochemical; details: for pKi: Ki
T1 construct: His tag (inferred from nickel IMAC purification); made in house; host or cells: E. coli BL21 (DE3)
Experimental: Recombinant Trypanosoma cruzi proline racemase (EC 5.1.1.4) was produced in E. Coli BL21 (DE3) (Invitrogen) and purified by immobilized metal affinity chromatography on nickel columns, as previously described.
(§1) Optimum Proline racemization conditions for TcPRAC were determined using 10–300 mM L-Proline in 0.2 M NaOAc over a range of pH values, as described and L- to D- proline conversion took place in 1.5 mL reaction. Concentrations of D-proline formed were determined by optical rotation of the solution at 365 nm in a 10 cm optical path cell, thermostated at 37°C, using a polarimeter (Perkin Elmer 241 MC). Assays were also performed into microtiter plates (100 µL), as follows: dilutions of L- Proline (40 mM to 2.5 mM) in 0.2 M sodium acetate pH 6.0 and 0.25 mM TcPRAC were loaded into microtiter plate wells with 0–20 µM PYC or similar concentrations of potential inhibitors. Controls omitted TcPRAC and/or PYC. The microtiter plates were incubated for 30 minutes at 37°C. The enzyme was inactivated by heating in a microwave oven for 15 s at 900 Watts and shifting the pH to 8.3 by adding 6.8 µL of 0.235 M sodium pyrophosphate. The presence of D-Proline was tested in 50 µL from each well using the D-amino oxidase - Horse Radish Peroxidase/OPD combined test. Interference caused by the possible reactivity of amino acid L-forms with DAAOx was taken into account by using standards consisting of serial dilutions of an equimolar mixture of D- and L-proline ranging from 0 to 10 mM (10 mM total). For instance, DAAOx reacts with L-Proline 300 times slower than with D-Proline. Optical densities, OD490 nm – OD650 nm were recorded on a microtiter plate reader (Molecular Devices), and the signals from the blank control wells were deducted.

TcPRAC [2] = target: T1, TcPRAC; assay: DAAOx test of D-proline formed by TcPRAC; type: biochemical; details: for D-Proline formed: inhibitor 10 µM, without inhibitor 5.0 µM
Experimental: as §1
(§2) Only two novel TcPRAC inhibitors, both provided by the CN, were identified among these (Figure 4B).

T. cruzi [3] = assay: Vero cell infection by T. cruzi trypomastigotes, endocytic index (Giemsa count); type: cell-based, Trypanosoma cruzi; details: for Endocytic index (EI): added with parasites, 17 h, Vero cells
Experimental: Cell culture-derived trypomastigotes from T. cruzi CL Brener (clone F11-F5) were isolated from the supernatant of bulk cultures of green monkey Vero kidney cells previously infected with bloodstream trypomastigotes. Known numbers of parasites, adherent infected cells and uninfected cell controls were lysed with 0.1 mL of 0.05% Tween 20 solution in sterile distilled water and the lysates were frozen. Vero cells were seeded in LabTek slides (5×10^4 cells/well) in RPMI 1640 medium/5% FCS and kept at 37°C, 5% CO2. […] To test the effect of the inhibitors on the parasite intracellular cycle, […] different dilutions of the compounds. All cultures were then washed with PBS, fixed and stained with Giemsa. The number of infected host cells was recorded along with the number of parasites per infected cell in at least 400 host cells, in duplicate experiments. Results were expressed as the endocytic index (EI) resulting from the product of the percentage of infected cells and the mean number of parasites per infected cell. Control cultures were incubated in medium alone or with equal DMSO concentrations.
(§3) To verify the potential of these new PRAC inhibitors as lead compounds in drug design strategies, we compared their effects on cultures of host Vero cells infected or not with T. cruzi, with that of PYC. […] To determine whether the treatment of these cultures with the new compounds would indeed affect intracellular TcPRAC and as such interfere with parasite intracellular fate cells were then washed after parasite uptake and the same ligand concentrations as above (10 µM − 30 µM) were added to the cultures in fresh medium. The degree of infection was determined over 48 hours by capture ELISA. As expected, the number of parasites per well decreased in a dose-dependent manner (Figure 7). In vitro and in vivo experiments using mutant parasites that carry the luciferase gene are now in progress to support those data.

T. cruzi [4] = assay: Vero cell infection by T. cruzi, total parasite numbers/culture by capture ELISA; type: cell-based, Trypanosoma cruzi
Experimental: Cell culture-derived trypomastigotes from T. cruzi CL Brener (clone F11-F5) were isolated from the supernatant of bulk cultures of green monkey Vero kidney cells previously infected with bloodstream trypomastigotes. Known numbers of parasites, adherent infected cells and uninfected cell controls were lysed with 0.1 mL of 0.05% Tween 20 solution in sterile distilled water and the lysates were frozen. Vero cells were seeded in LabTek slides (5×10^4 cells/well) in RPMI 1640 medium/5% FCS and kept at 37°C, 5% CO2. […] To test the effect of the inhibitors on the parasite intracellular cycle, cultures were infected at 37°C for 17 hours without inhibitors, washed three times to eliminate extracellular parasites then incubated for up to 48 hours with fresh medium containing different dilutions of the compounds. All cultures were then washed with PBS, fixed and stained with Giemsa. The number of infected host cells was recorded along with the number of parasites per infected cell in at least 400 host cells, in duplicate experiments. Results were expressed as the endocytic index (EI) resulting from the product of the percentage of infected cells and the mean number of parasites per infected cell. Control cultures were incubated in medium alone or with equal DMSO concentrations.
Flat-bottomed microtiter plates (Nunc, Denmark) were coated overnight at 4°C with rabbit anti-T. cruzi polyclonal antibodies and further blocked for 4 h at room temperature (RT) with 1% BSA, 0.05% Tween 20 in PBS. After washings, lysate samples from infected or control Vero cultures, or from T. cruzi, were then added and incubated at 4°C for 18 h. Plates were washed with PBS-Tween and incubated for 2 h at RT with polyclonal mouse anti-T. cruzi chronic serum, washed again and incubated for 1 h at RT with HRP-secondary antibodies. […] Optical densities were determined in a spectrophotometer at 450 nm and 650 nm, and analyzed by Softmax Pro software.
as §3
Total parasite numbers/culture were estimated by capture ELISA.

TcPRAC [5] = target: T1, TcPRAC; assay: Inhibition of TcPRAC proline racemization measured by polarimetry; type: biochemical
Experimental: as §1, §2

non infected Vero cells = assay: Viability of non infected Vero cells; type: cell-based, green monkey; details: 3, 10 and 30 µM
Experimental: Cell culture-derived trypomastigotes from T. cruzi CL Brener (clone F11-F5) were isolated from the supernatant of bulk cultures of green monkey Vero kidney cells previously infected with bloodstream trypomastigotes. Known numbers of parasites, adherent infected cells and uninfected cell controls were lysed with 0.1 mL of 0.05% Tween 20 solution in sterile distilled water and the lysates were frozen. Vero cells were seeded in LabTek slides (5×10^4 cells/well) in RPMI 1640 medium/5% FCS and kept at 37°C, 5% CO2. […] The number of infected host cells was recorded along with the number of parasites per infected cell in at least 400 host cells, in duplicate experiments. Results were expressed as the endocytic index (EI) resulting from the product of the percentage of infected cells and the mean number of parasites per infected cell. […]
To verify the potential of these new PRAC inhibitors as lead compounds in drug design strategies, we compared their effects on cultures of host Vero cells infected or not with T. cruzi, with that of PYC. […] The degree of infection was determined over 48 hours by capture ELISA. […]

TcPRAC [6] = target: T1, TcPRAC; assay: Kinetics of D-proline formation with time / enzyme inactivation (polarimetry); type: biochemical; details: for mode of TcPRAC inhibition: pre-incubation 5 or 10 min, 15 fold dilution, 300 mM L-proline
Experimental: Kinetic reaction assays using fixed amounts of dimeric PRAC (22 µg –0.24 µM final), 40 mM substrate and 10 µM of the identified inhibitors were performed to characterize their effect on enzymatic activity (Figure 5). […] To further characterize the mode of action of this two molecules, the enzyme was pre-incubated (concentration 22 µg − 3,6 µM) with different concentration of inhibitor, for 5 or 10 min to determine inhibition dependence to inhibitor concentration and pre-incubation time. Then, the reaction mixture was diluted 15 fold and residual activity was determined in an excess of substrate (300 mM of L- proline).
Figure 5 Kinetics of D-proline formation with time in the presence or absence of TcPRAC inhibitors. (A) Concentrations of D-proline formed were determined by polarimetry in reaction assays containing 0.15 µM of TcPRAC and 40 mM L proline (see Material and Methods).

Solubility (qualitative) = type: physicochemical; details: for Solubility: solvent in which the compound is soluble, qualitative
TcPRAC [7] = target: T1, TcPRAC; details: cited from earlier work
[8] = read-out: Racemization Inhibition
[9] = 10 µM inhibitor, 40 mM substrate, 0.24 µM PRAC
[10] = classical Michaelian approaches

T1 sequence (Q4DA80 32-423): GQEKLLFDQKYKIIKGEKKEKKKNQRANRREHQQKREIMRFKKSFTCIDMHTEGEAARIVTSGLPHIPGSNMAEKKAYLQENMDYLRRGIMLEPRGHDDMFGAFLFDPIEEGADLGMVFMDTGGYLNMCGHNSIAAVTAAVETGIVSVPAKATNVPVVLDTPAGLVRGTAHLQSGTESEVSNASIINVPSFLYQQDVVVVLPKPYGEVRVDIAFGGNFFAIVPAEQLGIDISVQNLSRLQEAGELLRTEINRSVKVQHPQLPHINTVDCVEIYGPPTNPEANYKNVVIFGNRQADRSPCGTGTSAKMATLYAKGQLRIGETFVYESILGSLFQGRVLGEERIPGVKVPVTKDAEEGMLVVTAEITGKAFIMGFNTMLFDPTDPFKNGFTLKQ

In the case of O=C(O)/C=C/C(=O)CBr [Br-OxoPA, (E)-5-bromo-4-oxopent-2-enoic acid], the “more potent than PYC in inhibiting TcPRAC” value (TcPRAC [1]) was 4 fold, the “inhibition of conversion of L- into D-proline relative to PYC” value (TcPRAC [2]; equivalent concentrations, DAAOx test) was “more than 5 times” and the D-Proline formed (TcPRAC [2]) was <0.3 µM. For the same compound, the “lower dose than PYC necessary to obtain the same endocytic index” value (T. cruzi [3]; 1000 µM PYC equivalent to 10 µM OxoPA or 30 µM Br-OxoPA) was 30 fold, the “Endocytic index (EI)” value (T. cruzi [3]; inhibitor 3 µM) was 78 and the “Endocytic index (EI)” value (T. cruzi [3]; inhibitor 10 µM) was 42. The “Endocytic index (EI)” value (T. cruzi [3]; inhibitor 30 µM) was 29, the “percentage in Figure 7 (effect on total parasite numbers/culture, capture ELISA)” value (T. cruzi [4]; 5 µM) was 24% and the “percentage in Figure 7 (effect on total parasite numbers/culture, capture ELISA)” value (T. cruzi [4]; 10 µM) was 34%. For the same compound, the “percentage in Figure 7 (effect on total parasite numbers/culture, capture ELISA)” value (T. cruzi [4]; 30 µM) was 39%, the pIC50 (TcPRAC [5]) was 5.60 and the inhibition at 2.5 µM (TcPRAC [5]; [8]) was 50%. The inhibition at 10 µM (TcPRAC [5]; [8]) was 81.3%, the “viability of non infected Vero cells” value (non infected Vero cells) was “neither OxoPA nor Br-OxoPA considerably affected the viability” and the “time at which plateau of enzyme inactivation is reached” value (TcPRAC [6]; [9]) was 250 s. The “mode of TcPRAC inhibition” value (TcPRAC [6]) was “irreversible” and the “solubility in water” value (Solubility (qualitative)) was “soluble”.

In the case of O=C(O)c1n[nH]cc1Br [Br-PZC, 4-bromo-1H-pyrazole-3-carboxylic acid], the pKi (TcPRAC [1]; [10]) was 3.00, the pKi (TcPRAC [1]; values in text) was ~3.00 and the Solubility (Solubility (qualitative)) was “Water”.

In the case of O=C(O)c1n[nH]cc1Cl [Cl-PZC, 4-chloro-1H-pyrazole-3-carboxylic acid], the pKi (TcPRAC [1]; [10]) was 3.52, the pKi (TcPRAC [1]; values in text) was ~3.52 and the Solubility (Solubility (qualitative)) was “Water”.

For CCc1c[nH]nc1C(=O)O [Et-PZC, 4-Ethyl-pyrazole-3-carboxylic acid], the pKi (TcPRAC [1]; [10]) was < 2.70 and the Solubility (Solubility (qualitative)) was “Water”.

In the case of Cc1[nH]nc(C(=O)O)c1Cl [M-Cl-PZC, 4-chloro-5-methyl-1H-pyrazole-3-carboxylic acid], the pKi (TcPRAC [1]; [10]) was < 2.70 and the Solubility (Solubility (qualitative)) was “Ethanol”.

With CC(=O)/C=C/C(=O)O [OxoPA, (E)-4-oxopent-2-enoic acid] the “more potent than PYC in inhibiting TcPRAC” value (TcPRAC [1]) was 2 fold, the D-Proline formed (TcPRAC [2]) was <0.3 µM and the “percentage in Figure 7 (effect on total parasite numbers/culture, capture ELISA)” value (T. cruzi [4]; 5 µM) was 9%. The “percentage in Figure 7 (effect on total parasite numbers/culture, capture ELISA)” value (T. cruzi [4]; 10 µM) was 14%, the “percentage in Figure 7 (effect on total parasite numbers/culture, capture ELISA)” value (T. cruzi [4]; 30 µM) was 15% and the pIC50 (TcPRAC [5]) was 5.52. For the same compound, the inhibition at 3 µM (TcPRAC [5]; [8]) was 50%, the “viability of non infected Vero cells” value (non infected Vero cells) was “neither OxoPA nor Br-OxoPA considerably affected the viability” and the “time at which plateau of enzyme inactivation is reached” value (TcPRAC [6]; [9]) was 350 s. The “mode of TcPRAC inhibition” value (TcPRAC [6]) was “irreversible”.

With O=C(O)c1ccc[nH]1 [PYC, 2-pyrrolecarboxylic acid, reference compound] the pKi (TcPRAC [1]; [10]) was 5.00 to 5.22, the D-Proline formed (TcPRAC [2]) was 2.4 µM (IC50) and the “Endocytic index (EI)” value (T. cruzi [3]; inhibitor 10 µM) was 44. For the same compound, the “Endocytic index (EI)” value (T. cruzi [3]; inhibitor 100 µM) was 30, the “Endocytic index (EI)” value (T. cruzi [3]; inhibitor 1000 µM) was 25 and the “percentage in Figure 7 (effect on total parasite numbers/culture, capture ELISA)” value (T. cruzi [4]; 10 µM) was 4%. For the same compound, the “percentage in Figure 7 (effect on total parasite numbers/culture, capture ELISA)” value (T. cruzi [4]; 100 µM) was 2%, the “percentage in Figure 7 (effect on total parasite numbers/culture, capture ELISA)” value (T. cruzi [4]; 1 mM) was 0% and the “mode of TcPRAC inhibition” value (TcPRAC [7]) was “classical competitive and reversible”. The pIC50 (TcPRAC [5]) was 5.00, the inhibition at 10 µM (TcPRAC [5]; [8]) was 56.9% and the “racemization speed of L-proline, % of original speed” value (TcPRAC [6]; [9]) was ~37%. The “solubility in water” value (Solubility (qualitative)) was “water-insoluble” and the Solubility (Solubility (qualitative)) was “Ethanol”.

For O=C(O)c1cc[nH]n1 [PZC, 1H-pyrazole-3-carboxylic acid], the pKi (TcPRAC [1]; [10]) was < 2.70 and the Solubility (Solubility (qualitative)) was “Water”.
